Test system: Human MSCs
Assay: Human chondrocyte differentiation assay (immunostaining for type II collagen, Sox9 and COMP)
Type: cell-based
Details: 168 h, compound 1 μM, 7 days, vs DMSO vehicle, read-out: Biological Activity (increase in staining intensity compared to vehicle control)
Procedure, shortened: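 Human MSCs (50,000/well) treated with compounds at 1 μM final for 7 days at 37 °C, 5% CO2. Formalin-fixed cells immunostained for type II collagen, Sox9 and COMP with fluorescent secondaries. Total staining intensity scored against DMSO vehicle baseline.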
Work on O=C(Nc1ccccc1S(=O)(=O)N1CCOCC1)c1ccc(F)cc1 [Compound 123] yielded an activation at 1 µM of over 50%. In the case of COCCc1ccc(NC(=O)c2ccccc2NS(=O)(=O)c2ccccc2)cc1 [Compound 156], the activation at 1 µM is reported as over 50%. Compound CN(Cc1cccc(NC(=O)c2ccccc2C(=O)O)c1)S(C)(=O)=O [Compound 73] has an activation at 1 µM of over 50%. CNS(=O)(=O)c1ccc(N2Cc3ccccc3C2=O)cc1 [Compound 27] gave an activation at 1 µM of over 50%. Compound COCCc1ccc(NC(=O)c2ccccc2NS(C)(=O)=O)cc1 [Compound 117] has an activation at 1 µM of over 50%. Work on CS(=O)(=O)c1ccc(C(=O)Nc2ccccc2S(=O)(=O)N2CCOCC2)cc1 [Compound 113] yielded an activation at 1 µM of over 50%.

Test system: not listed separately
Assay: Quantitation of compounds in rat knee joint extract after intra-articular injection (LC-MS/MS)
Type: in vivo
Details: knee joint extract (whole joint, acetonitrile extract), other: intra-articular injection, 30 μL of 100 μM solution, T = 0 h, 30 μL of 100 μM intra-articular, read-out: Concentration observed in extract
Description: LC-MS/MS analysis for Chondrogenesis compounds were performed using an API 3000 equipped with an Agilent 1100 HPLC and a Leap Technologies autosampler. A HPLC Phenomenex 5 micron, 100 A Luna C18 (2) analytical column with dimensions of 2.0×50 mm (Part No. 00B-4252-B0) at a temperature of 30 C, flow rate of 0.6 mL/min, injection volume of 10 uL, and a 6.0 min run time was used. Mobile phase A1 was 0.1% formic acid in water and Mobile phase B1 was 0.1% formic acid in acetonitrile. The gradient was 90% A1/10% B1 at time 0; 90% A1/10% B1 at time 1.0 min; 10% A1/90% B1 at time 2.0 min; 10% A1/90% B1 at time 4.0 min; 90% A1/10% B1 at time 4.10 min; 90% A1/10% B1 at time 6.0 min. Analytes and internal standard quantitation were performed using Multiple Reaction Monitoring (MRM) quantitation method. Listed below are specific methods used to dose and measure exposure in plasma and the observed concentration in joint extract.
Calibration standard curve was prepared by serial dilution of a concentrated, spike solution of the compound in internal standard diluents. Internal standard diluent was prepared by dissolving the internal standard compound at a certain concentration in acetonitrile. Rat knee joint samples for each time points were individually crushed and transferred into each centrifuge tube and added 1.0-mL of internal standard diluent. Each centrifuge tube was vortexed and centrifuged for 30 minutes. From each tube, supernatant was removed and injected onto the column for analysis. In addition, plasma samples were obtained by retro-orbital bleeds into heparin coated tubes and stored at −80 C and later processed by analogy to the protocol described above for rat plasma samples.
30 μL of 100 μM compound solution (PBS with 0.1% DMSO) was injected into the intra-articular space of the right hinder knee of each animal. The animals were euthanized at indicated time points (0 hr, 0.5 hr, 1 hr, 2 hr, 4 hr and 6 hr). Four animals were used for each timepoint. The injected knee joints were harvested, flash freeze in liquid nitrogen. The whole joints were grounded into powder while frozen, mixed with 1 mL internal standard-containing acetonitrile, incubated at 4° C. overnight, vortexed and centrifuged for 30 min. The supernatant from each sample was analyzed using LC-MS/MS. Data shown in Table 2 indicates the observed concentration in knee extract. ND=Not determined.
With O=C(Nc1ccccc1S(=O)(=O)N1CCOCC1)c1ccc(F)cc1 [Compound 123] the concentration at 0 h was 4430 ng/mL. For COCCc1ccc(NC(=O)c2ccccc2NS(=O)(=O)c2ccccc2)cc1 [Compound 156], the concentration at 0 h was 109 ng/mL. With CN(Cc1cccc(NC(=O)c2ccccc2C(=O)O)c1)S(C)(=O)=O [Compound 73] the concentration at 0 h was 587 ng/mL. CNS(=O)(=O)c1ccc(N2Cc3ccccc3C2=O)cc1 [Compound 27] showed a concentration at 0 h of 592 ng/mL. With COCCc1ccc(NC(=O)c2ccccc2NS(C)(=O)=O)cc1 [Compound 117] the concentration at 0 h was 926 ng/mL. For CS(=O)(=O)c1ccc(C(=O)Nc2ccccc2S(=O)(=O)N2CCOCC2)cc1 [Compound 113], the concentration at 0 h was 566 ng/mL.

Same assay, conditions: knee joint extract (whole joint, acetonitrile extract), other: intra-articular injection, 30 μL of 100 μM solution, T = 0.5 h, 30 μL of 100 μM intra-articular, read-out: Concentration observed in extract
O=C(Nc1ccccc1S(=O)(=O)N1CCOCC1)c1ccc(F)cc1 [Compound 123] gave a concentration at 0.5 h of 1100 ng/mL. With COCCc1ccc(NC(=O)c2ccccc2NS(=O)(=O)c2ccccc2)cc1 [Compound 156] the concentration at 0.5 h was 3.5 ng/mL. In the case of CN(Cc1cccc(NC(=O)c2ccccc2C(=O)O)c1)S(C)(=O)=O [Compound 73], the concentration at 0.5 h is reported as 28.5 ng/mL. Work on CNS(=O)(=O)c1ccc(N2Cc3ccccc3C2=O)cc1 [Compound 27] yielded a concentration at 0.5 h of 35.4 ng/mL. For COCCc1ccc(NC(=O)c2ccccc2NS(C)(=O)=O)cc1 [Compound 117], the concentration at 0.5 h was 50.6 ng/mL. CS(=O)(=O)c1ccc(C(=O)Nc2ccccc2S(=O)(=O)N2CCOCC2)cc1 [Compound 113] showed a concentration at 0.5 h of 25.3 ng/mL.

Same assay, conditions: knee joint extract (whole joint, acetonitrile extract), other: intra-articular injection, 30 μL of 100 μM solution, T = 1 h, 30 μL of 100 μM intra-articular, read-out: Concentration observed in extract
In the case of O=C(Nc1ccccc1S(=O)(=O)N1CCOCC1)c1ccc(F)cc1 [Compound 123], the concentration at 1 h is reported as 741 ng/mL. For COCCc1ccc(NC(=O)c2ccccc2NS(=O)(=O)c2ccccc2)cc1 [Compound 156], the concentration at 1 h was 0 ng/mL. For CN(Cc1cccc(NC(=O)c2ccccc2C(=O)O)c1)S(C)(=O)=O [Compound 73], the concentration at 1 h was 9.41 ng/mL. With CNS(=O)(=O)c1ccc(N2Cc3ccccc3C2=O)cc1 [Compound 27] the concentration at 1 h was 6.3 ng/mL. Work on COCCc1ccc(NC(=O)c2ccccc2NS(C)(=O)=O)cc1 [Compound 117] yielded a concentration at 1 h of 4.4 ng/mL. Work on CS(=O)(=O)c1ccc(C(=O)Nc2ccccc2S(=O)(=O)N2CCOCC2)cc1 [Compound 113] yielded a concentration at 1 h of 4.2 ng/mL.

Same assay, conditions: knee joint extract (whole joint, acetonitrile extract), other: intra-articular injection, 30 μL of 100 μM solution, T = 2 h, 30 μL of 100 μM intra-articular, read-out: Concentration observed in extract
Work on O=C(Nc1ccccc1S(=O)(=O)N1CCOCC1)c1ccc(F)cc1 [Compound 123] yielded a concentration at 2 h of 338 ng/mL. COCCc1ccc(NC(=O)c2ccccc2NS(=O)(=O)c2ccccc2)cc1 [Compound 156] showed a concentration at 2 h of 0 ng/mL. CN(Cc1cccc(NC(=O)c2ccccc2C(=O)O)c1)S(C)(=O)=O [Compound 73] gave a concentration at 2 h of 2.6 ng/mL. Work on CNS(=O)(=O)c1ccc(N2Cc3ccccc3C2=O)cc1 [Compound 27] yielded a concentration at 2 h of 2.5 ng/mL. Work on COCCc1ccc(NC(=O)c2ccccc2NS(C)(=O)=O)cc1 [Compound 117] yielded a concentration at 2 h of 0 ng/mL. With CS(=O)(=O)c1ccc(C(=O)Nc2ccccc2S(=O)(=O)N2CCOCC2)cc1 [Compound 113] the concentration at 2 h was 0 ng/mL.

Same assay, conditions: knee joint extract (whole joint, acetonitrile extract), other: intra-articular injection, 30 μL of 100 μM solution, T = 4 h, 30 μL of 100 μM intra-articular, read-out: Concentration observed in extract
Compound O=C(Nc1ccccc1S(=O)(=O)N1CCOCC1)c1ccc(F)cc1 [Compound 123] has a concentration at 4 h of 38 ng/mL.

Same assay, conditions: knee joint extract (whole joint, acetonitrile extract), other: intra-articular injection, 30 μL of 100 μM solution, T = 6 h, 30 μL of 100 μM intra-articular, read-out: Concentration observed in extract
O=C(Nc1ccccc1S(=O)(=O)N1CCOCC1)c1ccc(F)cc1 [Compound 123] showed a concentration at 6 h of 0 ng/mL.
